System: human PBMCs
Assay: Gene expression (Illumina BeadChip) in human PBMCs
Type: cell-based
Details: 30 ng/mL
Description: Human peripheral blood mononuclear cells (PBMCs) were isolated by Ficoll-Paque sedimentation of heparinised blood from a human donor, and cultured in RPMI-1640 10% FCS. Following treatment with Compound 1 at 30 ng/mL, the monolayer was washed once with phosphate buffered saline (PBS) and the cells harvested with sterile scrapers and stored as pellets at −80° C.
RNA was extracted from 30 mg of frozen tumour or 1×10^7 cells using the QiagenRNeasyPlus Mini Kit, according to manufacturer's instructions, then quantitated with a NanoDrop instrument and integrity confirmed on denaturing agarose gels bearing a 1 kb DNA marker and stained with ethidium bromide.
Approximately 500 ng of total unlabelled RNA was adjusted to a final volume of 11 μL with nuclease-free water. The RNA was incubated with 9 μL of the reverse transcriptase master mix (1 μL of T7 Oligo (dT) Primer, 2 μL of 10× first strand buffer, 4 μL of dNTP mix, 1 μL of RNase inhibitor and 1 μL of ArrayScript) at 42° C. for 2 hr. This was followed by the second strand cDNA synthesis step which involved a further incubation at 16° C. for 2 hr with 80 µL of the second strand master mix (63 μL nuclease-free water, 10 μL 10× second strand buffer, 4 μL dNTP mix, […] and 1 μL RNase H). The cDNA was purified by filtering through a cDNA Filter Cartridge with 250 μL of cDNA binding buffer and washing with 500 μL of the wash buffer provided in the kit. Purified cDNA was eluted with 20 μL of 55° C. nuclease-free water. Each cDNA sample was incubated with 7.5 μL of the IVT master mix (2.5 μL of T7 10× reaction buffer, 2.5 μL of T7 enzyme mix and 2.5 μL biotin-NTP mix) at 37° C. for 16 hr. The reaction was stopped with the addition of 75 μL of nuclease-free water to each cRNA sample. The biotinylated, amplified RNA was purified by filtering the cRNA samples through cRNA Filter Cartridges with 350 μL of cRNA binding buffer and 250 μL of 100% ethanol mixed together prior to loading onto the filters. The cRNA filter cartridges with attached RNA were then washed with 650 μL of wash buffer before eluting purified cRNA with 200 μL of 55° C. nuclease-free water.
The cRNA samples were heated at 65° C. for 5 min and collected by pulse centrifugation. After heating at 65 degrees for 5 min, approximately 750 ng of the cRNA sample was aliquoted into separate tubes to which were added ˜5 μL of RNase-free water and 10 μL of Hyb Mix. Approximately 15 μL of the prepared cRNA mix was loaded onto the Illumina Expression BeadChips. Subsequent steps of hybridisation and washing were carried out according to the Whole-Genome Gene Expression Direct Hybridization Assay Guide supplied by Illumina.
The Human HT-12 v4 Expression BeadChips cover more than 47,000 transcripts and known splice variants across the human transcriptome. The MouseRef-8 v2.0 Expression BeadChips cover approximately 25,600 well-annotated RefSeq (Reference Sequence) transcripts, comprising over 19,000 unique genes.
BeadChips were read by the iScan System, and transferred via GenomeStudio into GeneSpring GX v12.5 (Agilent Technologies, Santa Clara, Calif., USA). The expression values were normalized using quantile normalization with default settings. The entities were filtered based on the detection score calculated by GenomeStudio where p≤0.05 was considered significant.
Human peripheral blood mononuclear cells (PBMCs) are rich in lymphocytes and macrophage precursors (monocytes) involved in the production of cytokines and tissue remodelling enzymes relevant to the wound healing process. […] It should therefore be noted that the genes shown in Table 14 illustrate the range of relevant molecules regulated by Compound 1 in a mixed lymphoid population in vitro, without specifying the order of tissue-specific expression in vivo.

## CC=C(C)C(=O)OC1C(C)C2(O)C(C3OC3(CO)C(O)C3(O)C(=O)C(C)=CC32)C2C(C)(C)C12OC(=O)C(C)CC (centres unmarked) [Compound 1, 12-tigloyl-13-(2-methylbutanoyl)-6,7-epoxy-4,5,9,12,13,20-hexahydroxy-1-tigliaen-3-one]
4 h
  CCL3L1: Direction of regulation: Up
  CCL7: Direction of regulation: Up
  CXCL2: Direction of regulation: Up
  GM-CSF: Direction of regulation: Up
  HBEGF: Direction of regulation: Up
  KLF10: Direction of regulation: Up
  MMP1: Direction of regulation: Up
  MMP7: Direction of regulation: Up
  MMP10: Direction of regulation: Up
  MMP19: Direction of regulation: Up
  TGM3: Direction of regulation: Up
  THBS1: Direction of regulation: Down
4 h, Down
  THBS1: Fold change in expression: −47.8 fold
4 h, Up
  CCL3L1: Fold change in expression: 5.3 fold
  CCL7: Fold change in expression: 9.4 fold
  CXCL2: Fold change in expression: 3.5 fold
  GM-CSF: Fold change in expression: 4.3 fold
  HBEGF: Fold change in expression: 2.7 fold
  KLF10: Fold change in expression: 5.9 fold
  MMP1: Fold change in expression: 3.1 fold
  MMP7: Fold change in expression: 3.5 fold
  MMP10: Fold change in expression: 3.2 fold
  MMP19: Fold change in expression: 11.6 fold
  TGM3: Fold change in expression: 2.3 fold
24 h
  CCL1: Direction of regulation: Up
  CCL3: Direction of regulation: Up
  CCL3L1: Direction of regulation: Up
  CCL7: Direction of regulation: Up
  CSF1: Direction of regulation: Up
  CXCL1: Direction of regulation: Up
  CXCL2: Direction of regulation: Up
  CXCL5: Direction of regulation: Up
  CXCL7: Direction of regulation: Up
  CXCL13: Direction of regulation: Up
  GM-CSF: Direction of regulation: Up
  HBEGF: Direction of regulation: Up
  IL1α: Direction of regulation: Up
  IL1β: Direction of regulation: Up
  IL6: Direction of regulation: Up
  IL10: Direction of regulation: Up
  IL24: Direction of regulation: Up
  KLF10: Direction of regulation: Up
  MMP1: Direction of regulation: Up
  MMP7: Direction of regulation: Up
  MMP9: Direction of regulation: Down
  MMP10: Direction of regulation: Up
  MMP19: Direction of regulation: Up
  TGM2: Direction of regulation: Up
  TGM3: Direction of regulation: Up
  TGM5: Direction of regulation: Down
  THBS1: Direction of regulation: Down
  TIMP2: Direction of regulation: Down
24 h, Down
  MMP9: Fold change in expression: −22.9 fold
  TGM5: Fold change in expression: −3.3 fold
  THBS1: Fold change in expression: −101.5 fold
  TIMP2: Fold change in expression: −10.9 fold
24 h, Up
  CCL1: Fold change in expression: 39.8 fold
  CCL3: Fold change in expression: 56.9 fold
  CCL3L1: Fold change in expression: 72.3 fold
  CCL7: Fold change in expression: 54.5 fold
  CSF1: Fold change in expression: 5.1 fold
  CXCL1: Fold change in expression: 15.5 fold
  CXCL2: Fold change in expression: 73.5 fold
  CXCL5: Fold change in expression: 8.1 fold
  CXCL7: Fold change in expression: 17.5 fold
  CXCL13: Fold change in expression: 2.2 fold
  GM-CSF: Fold change in expression: 34.6 fold
  HBEGF: Fold change in expression: 5.1 fold
  IL1α: Fold change in expression: 14.6 fold
  IL1β: Fold change in expression: 15.4 fold
  IL6: Fold change in expression: 33.1 fold
  IL10: Fold change in expression: 2.1 fold
  IL24: Fold change in expression: 4.6 fold
  KLF10: Fold change in expression: 9.3 fold
  MMP1: Fold change in expression: 4.2 fold
  MMP7: Fold change in expression: 7.4 fold
  MMP10: Fold change in expression: 52 fold
  MMP19: Fold change in expression: 2.6 fold
  TGM2: Fold change in expression: 12.2 fold
  TGM3: Fold change in expression: 28.4 fold
96 h
  CCL1: Direction of regulation: Up
  CCL3L1: Direction of regulation: Up
  CCL7: Direction of regulation: Up
  CXCL5: Direction of regulation: Up
  CXCL7: Direction of regulation: Up
  CXCL13: Direction of regulation: Up
  GM-CSF: Direction of regulation: Up
  MMP7: Direction of regulation: Up
  TGM2: Direction of regulation: Up
96 h, Up
  CCL1: Fold change in expression: 42.6 fold
  CCL3L1: Fold change in expression: 4.2 fold
  CCL7: Fold change in expression: 4.8 fold
  CXCL5: Fold change in expression: 15.1 fold
  CXCL7: Fold change in expression: 37.4 fold
  CXCL13: Fold change in expression: 23.5 fold
  GM-CSF: Fold change in expression: 6 fold
  MMP7: Fold change in expression: 117.3 fold
  TGM2: Fold change in expression: 4.4 fold

Source: US10822317B2, “Methods and compositions for wound healing” (QBiotics Limited, priority 2013, dated 2020)
